# Experimental data published in patent US8354416B2 (Glaxo Group Limited, priority 2005, dated 2013).
# Counter-ions that a name gives are not always drawn.
# Tested on: influx of neutrophils to the lung in LPS-challenged rats
# Assay: Rat LPS neutrophilia model
# Type: in vivo
# Conditions: intratracheal, LPS aerosol 100 ug/ml, in at least one of the range of conditions tested, significance p<0.05
# Protocol: Rat LPS Neutrophilia Model
# The effect of compounds on the influx of neutrophils to the lung in LPS-challenged rats is evaluated as follows. The test compound is suspended in one of the following solutions: 0.5% tween 80/PBS, 0.5% tween 80/saline, 10% EtOH/saline (with pH adjusted to 2.0, or 8.0 with HCl, or unadjusted), Saline (pH 2.0, 6.5 or 8.0, 0.5% Tragacanth, 1% DMSO/20% Encapsin/Saline, or acidified 5% Tragacanth. The suspension process may be aided by the use of a glass homogenizer. For intratracheal administration, the animals are anesthetized with inhaled isoflurane and placed in a supine position, the trachea is intubated with a steel gavage needle (1.5 inch, 22 gauge, small ball) or a Penn-Century Microsprayer Aerosolizer (model IA-1B) and 200 ul of dosing solution is delivered. The animals are visually monitored during the recovery process, which typically occurs within two minutes. It is noted that the test compounds may be alternatively administered via the microsprayer in a dry powder blend with a suitable excipient, such as lactose.
# Rats treated with compound or vehicle (15 min-24 hours pretreatment) are exposed to an LPS aerosol (100 ug/ml) for 15 min. Four hours later the rats are euthanized with pentobarbital (100 mg/kg, i.p.) and the airways are lavaged with 5 washes of 5 ml of phosphate buffered saline. The harvested cells are stained (Diffquick) and counted to determine total and differential cell data. […] Inhibition of neutrophil levels relative to no compound controls is calculated based on the differential counts.
# The data is obtained as % inhibition using a particular concentration and pretreat time.
row,SMILES,inhibition of neutrophilia (neutrophil levels in airway lavage relative to no compound controls)
1,"Cc1ccc(NC(=O)c2ccsc2)cc1-c1nc(NC2CC(C)(C)NC(C)(C)C2)nc2c1ccc(=O)n2-c1c(F)cccc1F [31(e), N-(3-{8-(2,6-difluorophenyl)-7-oxo-2-[(2,2,6,6-tetramethyl-4-piperidinyl)amino]-7,8-dihydropyrido[2,3-d]pyrimidin-4-yl}-4-methylphenyl)-3-thiophenecarboxamide]",statistically significant inhibition of neutrophilia
2,"CCCNC(=O)c1ccc(C)c(-c2nc(NCCNC)nc3c2ccc(=O)n3-c2c(F)cccc2F)c1 [56(d), 3-(8-(2,6-difluorophenyl)-2-{[2-(methylamino)ethyl]amino}-7-oxo-7,8-dihydropyrido[2,3-d]pyrimidin-4-yl)-4-methyl-N-propylbenzamide]",statistically significant inhibition of neutrophilia
3,"Cc1ccc(C(=O)Nc2nccs2)cc1-c1nc(NCc2ncc[nH]2)nc2c1ccc(=O)n2-c1c(F)cccc1F [79(c), 3-{8-(2,6-difluorophenyl)-2-[(1H-imidazol-2-ylmethyl)amino]-7-oxo-7,8-dihydropyrido[2,3-d]pyrimidin-4-yl}-4-methyl-N-1,3-thiazol-2-ylbenzamide]",statistically significant inhibition of neutrophilia
4,"CNC1CCN(c2nc(-c3cc(C(=O)NC(C)C)ccc3C)c3ccc(=O)n(-c4c(F)cccc4F)c3n2)CC1 [113(b), 3-{8-(2,6-difluorophenyl)-2-[4-(methylamino)-1-piperidinyl]-7-oxo-7,8-dihydropyrido[2,3-d]pyrimidin-4-yl}-4-methyl-N-(1-methylethyl)benzamide]",statistically nonsignificant inhibition of neutrophilia
5,"Cc1ccc(C(=O)NC(C)C)cc1-c1nc(N2CCC(N3CCC(C)CC3)CC2)nc2c1ccc(=O)n2-c1c(F)cccc1F [163(c), 3-[8-(2,6-difluorophenyl)-2-(4-methyl-1,4′-bipiperidin-1′-yl)-7-oxo-7,8-dihydropyrido[2,3-d]pyrimidin-4-yl]-4-methyl-N-(1-methylethyl)benzamide]",statistically nonsignificant inhibition of neutrophilia
6,CNCCNc1nc(-c2cc(C(=O)NCC3CC3)ccc2C)c2ccc(=O)n(-c3c(F)cccc3F)c2n1 [Example 4],statistically significant inhibition of neutrophilia
7,"Cc1ccc(C(=O)NC2CC2)cc1-c1nc(N2CCC(N)CC2)nc2c1ccc(=O)n2-c1c(F)cccc1F [Example 22, 3-[2-(4-amino-1-piperidinyl)-8-(2,6-difluorophenyl)-7-oxo-7,8-dihydropyrido[2,3-d]pyrimidin-4-yl]-N-cyclopropyl-4-methylbenzamide]",statistically significant inhibition of neutrophilia
8,"Cc1ccc(C(=O)NC2CC2)cc1-c1nc(NCc2ncc[nH]2)nc2c1ccc(=O)n2-c1c(F)cccc1F [Example 23, N-cyclopropyl-3-{8-(2,6-difluorophenyl)-2-[(1H-imidazol-2-ylmethyl)amino]-7-oxo-7,8-dihydropyrido[2,3-d]pyrimidin-4-yl}-4-methylbenzamide]",statistically nonsignificant inhibition of neutrophilia
9,"CCCNCCNc1nc(-c2cc(C(=O)NC3CC3)ccc2C)c2ccc(=O)n(-c3c(F)cccc3F)c2n1 [Example 24, N-cyclopropyl-3-(8-(2,6-difluorophenyl)-7-oxo-2-{[2-(propylamino)ethyl]amino}-7,8-dihydropyrido[2,3-d]pyrimidin-4-yl)-4-methylbenzamide]",statistically nonsignificant inhibition of neutrophilia
10,Cc1ccc(C(=O)NC2CC2)cc1-c1nc(NCCN(C)C)nc2c1ccc(=O)n2-c1c(F)cccc1F [Example 25],statistically nonsignificant inhibition of neutrophilia
11,"Cc1ccc(C(=O)NCC2CC2)cc1-c1nc(N2CCC(N)CC2)nc2c1ccc(=O)n2-c1c(F)cccc1F [Example 27, 3-[2-(4-amino-1-piperidinyl)-8-(2,6-difluorophenyl)-7-oxo-7,8-dihydropyrido[2,3-d]pyrimidin-4-yl]-N-(cyclopropylmethyl)-4-methylbenzamide]",statistically significant inhibition of neutrophilia
12,"Cc1ccc(C(=O)NCCc2ccccc2)cc1-c1nc(NC2CC(C)(C)NC(C)(C)C2)nc2c1ccc(=O)n2-c1c(F)cccc1F [Example 28, 3-{8-(2,6-difluorophenyl)-7-oxo-2-[(2,2,6,6-tetramethyl-4-piperidinyl)amino]-7,8-dihydropyrido[2,3-d]pyrimidin-4-yl}-4-methyl-N-(2-phenylethyl)benzamide]",statistically nonsignificant inhibition of neutrophilia
13,"CNCCNc1nc(-c2cc(C(=O)NCCc3ccccc3)ccc2C)c2ccc(=O)n(-c3c(F)cccc3F)c2n1 [Example 29, 3-(8-(2,6-difluorophenyl)-2-{[2-(methylamino)ethyl]amino}-7-oxo-7,8-dihydropyrido[2,3-d]pyrimidin-4-yl)-4-methyl-N-(2-phenylethyl)benzamide]",statistically significant inhibition of neutrophilia
14,"Cc1ccc(NC(=O)c2ccsc2)cc1-c1nc(N2CCC(N)CC2)nc2c1ccc(=O)n2-c1c(F)cccc1F [Example 32, N-{3-[2-(4-amino-1-piperidinyl)-8-(2,6-difluorophenyl)-7-oxo-7,8-dihydropyrido[2,3-d]pyrimidin-4-yl]-4-methylphenyl}-3-thiophenecarboxamide]",statistically nonsignificant inhibition of neutrophilia
15,"Cc1ccc(C(=O)NC(C)C)cc1-c1nc(N(C)CCCN(C)C)nc2c1ccc(=O)n2-c1c(F)cccc1F [Example 34, 3-{8-(2,6-difluorophenyl)-2-[[3-(dimethylamino)propyl](methyl)amino]-7-oxo-7,8-dihydropyrido[2,3-d]pyrimidin-4-yl}-4-methyl-N-(1-methylethyl)benzamide]",statistically significant inhibition of neutrophilia
16,"Cc1ccc(NC(=O)c2cccc3cc[nH]c23)cc1-c1nc(NC(CO)CO)nc2c1ccc(=O)n2-c1c(F)cccc1F [Example 44, N-[3-(8-(2,6-difluorophenyl)-2-{[2-hydroxy-1-(hydroxymethyl)ethyl]amino}-7-oxo-7,8-dihydropyrido[2,3-d]pyrimidin-4-yl)-4-methylphenyl]-1H-indole-7-carboxamide trifluoroacetate]",statistically significant inhibition of neutrophilia
17,"CNCCNc1nc(-c2cc(C(=O)NC(C)C)ccc2C)c2ccc(=O)n(-c3c(F)cccc3F)c2n1 [Example 57, 3-(8-(2,6-difluorophenyl)-2-{[2-(methylamino)ethyl]amino}-7-oxo-7,8-dihydropyrido[2,3-d]pyrimidin-4-yl)-4-methyl-N-(1-methylethyl)benzamide]",statistically significant inhibition of neutrophilia
18,"CNCCNc1nc(-c2cc(C(=O)NC3CCCC3)ccc2C)c2ccc(=O)n(-c3c(F)cccc3F)c2n1 [Example 58, N-cyclopentyl-3-(8-(2,6-difluorophenyl)-2-{[2-(methylamino)ethyl]amino}-7-oxo-7,8-dihydropyrido[2,3-d]pyrimidin-4-yl)-4-methylbenzamide]",statistically significant inhibition of neutrophilia
19,"CNCCNc1nc(-c2cc(C(=O)NCc3ccccc3)ccc2C)c2ccc(=O)n(-c3c(F)cccc3F)c2n1 [Example 59, 3-(8-(2,6-difluorophenyl)-2-{[2-(methylamino)ethyl]amino}-7-oxo-7,8-dihydropyrido[2,3-d]pyrimidin-4-yl)-4-methyl-N-(phenylmethyl)benzamide]",statistically significant inhibition of neutrophilia
20,"CNCCNc1nc(-c2cc(C(=O)Nc3ccc(F)cc3)ccc2C)c2ccc(=O)n(-c3c(F)cccc3F)c2n1 [Example 60, 3-(8-(2,6-difluorophenyl)-2-{[2-(methylamino)ethyl]amino}-7-oxo-7,8-dihydropyrido[2,3-d]pyrimidin-4-yl)-N-(4-fluorophenyl)-4-methylbenzamide]",statistically significant inhibition of neutrophilia
21,"CNCCNc1nc(-c2cc(C(=O)Nc3nccs3)ccc2C)c2ccc(=O)n(-c3c(F)cccc3F)c2n1 [Example 61, 3-(8-(2,6-difluorophenyl)-2-{[2-(methylamino)ethyl]amino}-7-oxo-7,8-dihydropyrido[2,3-d]pyrimidin-4-yl)-4-methyl-N-1,3-thiazol-2-ylbenzamide]",statistically significant inhibition of neutrophilia
